From patent US20260275295A1, “LIVER ORGANOIDS WITH INTRAHEPATIC SYMPATHETIC NERVES AND METHODS OF USE THEREOF” (CHILDREN'S HOSPITAL MEDICAL CENTER, priority 2023, published 2026)

Legend:
[1] = system: human liver organoids (HLOs); assay: generation of neural crest cells and sympathetic neurons in HLOs (real-time PCR, whole mount immunostaining, flow cytometry); format: cell-based
[2] = system: human liver organoids (HLOs); assay: albumin (ALB) secretion of HLOs; format: cell-based
human liver organoids = assay: RT-qPCR of gluconeogenesis, lipogenesis and cytokine genes in liver organoids; format: cell-based
[3] = system: adrenergic receptor signaling; assay: intracellular cAMP levels in human liver organoids; format: cell-based; details: compared to untreated organoids
Protocol: The sympathetic neurons, or sympathetic nerves, in human liver organoids were ablated by 6-hydroxydopamine (6-OHDA), a sympathetic-specific toxin, and the intracellular levels of cyclic AMP (CAMP), a second messenger of adrenergic receptors in human liver organoids, were measured.

[4] = system: hepatocytes of human liver organoids; assay: TG accumulation in hepatocytes of organoids, live cell imaging with BODIPY 493/503; format: cell-based
Protocol: Next, it was determined whether sympathetic neurons, or sympathetic nerves, in human liver organoids contribute to lipid accumulation in hepatocytes. After treatment with 6-OHDA, triglyceride (TG) in hepatocytes of the organoids were measured by live cell imaging using BODIPY 493/503, a fluorescent probe for TG, and the accumulation of TG in hepatocytes of 6-OHDA-treated and untreated organoids was compared. TG accumulation in hepatocytes of 6-OHDA-treated organoids was about twice that of untreated organoids (FIG. 8A). In addition, TG accumulation in hepatocytes of organoids treated with 6-OHDA and then exposed to oleic acid (OA) for 3 days was about 3-fold higher than that of OA-only treated organoids (FIG. 8A).

[5] = system: HLO derived from two different iPS lines; assay: amount of TH+ cells in OA-treated HLO (NASH model); format: cell-based, human; details: OA treatment
Excerpt: FIG. 25 depicts the effect of OA treatment in increasing the amount of TH+ cells in HLO derived from two different iPS lines, showing an increase in innervation in a NASH model.
• 1. The distribution of sympathetic nerves projected to the liver is very different in humans as compared to experimental model animals, such as mice and rats. The presently described sympathetic neuron-containing human liver organoid model is expected to elucidate the distinctive mechanisms and timing of intrahepatic sympathetic projections during human liver development. • 2. Although it has been reported that sympathetic nerves contribute to the development and function of multiple organs, little is known regarding sympathetic nerves in the liver. This model leads to the identification of sympathetic effects on human liver development and the elucidation of their mechanisms of action. The model can also enable construction of enhanced (or mature) liver organoids by artificially regulating sympathetic nerve activity. • 3. The sympathetic nervous system has been reported to regulate gluconeogenesis in humans, but the mechanism by which it is promoted is unknown. Using this model, the mechanisms of human hepatic sympathetic innervation in gluconeogenesis can be elucidated. • 4. […] This model will allow us to identify the role of sympathetic nerves and their mechanisms in liver diseases. […]

[6] = system: human liver organoids (HLOs); assay: immunostaining and cell volume analysis of TUBB3+ and TH+ nerves in HLOs; format: cell-based
Protocol: Single cell RNA sequencing (scRNAseq) and real-time PCR quantification of gene expression were performed in day 20 (D20) liver organoids, and it was noted that the neuron attractive factor BDNF was highly expressed in hepatic stellate-like cells of the liver organoids. (FIG. 13). HLOs were treated with and without 1 μM BDNF inhibitor ANA12 for 5 days from day 15 (D15) to day 20 (D20) of differentiation induction. […] (FIG. 14). […] HLOs were treated with and without 100 nM of BDNF for 13 days from day 15 (D15) to day 28 (D28) of differentiation induction.

[7] = system: human liver organoids (HLOs); assay: generation of neural crest cells and sympathetic neurons in HLOs (real-time PCR, whole mount immunostaining, flow cytometry); format: cell-based; remark: listed apart in the source
Protocol: (§1) Foregut spheroids were treated with 250 nM, 500 nM, or 1000 nM of the BMP inhibitor LDN193189 for 72 hours from day 3 (D3) to day 6 (D6) of differentiation, and real-time PCR quantification was performed on D6. […] (FIG. 12). […] (FIG. 15A).

[8] = system: human liver organoids (HLOs); assay: gene expression of liver markers / liver induction in HLOs; format: cell-based
foregut spheroids = assay: real-time PCR of neural crest markers in foregut spheroids; format: cell-based, human; details: 250 nM, 500 nM, or 1000 nM for 72 hours D3 to D6, PCR on D6
Protocol: as §1

[9] = SB alone, 10 μM, days 3-6, listed as SB
[10] = RT-qPCR, 6-OHDA treated organoids vs control
[11] = steatosis conditions (oleic acid), relative to those not treated with 6-OHDA

With `NC(=O)c1ccc(-c2nc(-c3ccc4c(c3)OCO4)c(-c3ccccn3)[nH]2)cc1` [SB431542] the “neural crest cells and TUBB3/TH+ neurons detected” value ([1]; 10 μM SB431542 with 250 nM LDN193189, days 3-6) was “detected earlier (day 15) and more frequently than in the other conditions”, the “TUBB+/TH+ sympathetic innervation” value ([1]; SB431542 in addition to LDN, Day 3-Day 6, LDN alone had not yet developed innervation on day 15) was “extensive TUBB+/TH+ sympathetic innervation was formed around day 15” and the TH signal ([1]; SB alone, 10 μM, days 3-6) was “no TH signal was observed”. For the same molecule, the “TUBB3-positive cells / TUBB3+ innervation” value ([1]; SB alone, 10 μM, days 3-6) was “appeared”, the “expression of the parasympathetic marker CHAT” value ([1]; SB alone, 10 μM, days 3-6) was “detected in some TUBB3+ nerves” and the “TUBB3-positive cells / TUBB3+ innervation” value [1, 9] was “observed”. The “expression of the parasympathetic marker CHAT” value [1, 9] was “detected in some cells” and the albumin secretion ([2]; SB431542 (10 μM) in addition to LDN (250 nM), days 3-6) was “minimal”.

In the case of `NCCc1cc(O)c(O)cc1O` [6-OHDA, 6-hydroxydopamine], the “expression of CD36” value (human liver organoids; [10]) is reported as “increased expression”, the “expression of G6PC” value (human liver organoids; [10]) is reported as “increased expression” and the “expression of PCK1” value (human liver organoids; [10]) is reported as “increased expression”. For the same molecule, the “expression of SCD” value (human liver organoids; [10]) was “increased expression”, the “expression of CXCL8 (IL8)” value (human liver organoids; [11]) was “increased expression” and the “expression of TNF” value (human liver organoids; [11]) was “increased expression”. The “concentration of cAMP” value [3] was “significantly decreased”, the “TG accumulation in hepatocytes” value ([4]; 6-OHDA then oleic acid (OA) for 3 days, vs OA-only treated organoids) was “about 3 fold” and the “TG accumulation in hepatocytes” value ([4]; 6-OHDA-treated vs untreated organoids) was “about twice”.

With `CCCCCCCC/C=C\CCCCCCCC(=O)O` [OA, oleic acid] the “amount of TH+ cells in HLO” value [5] was “increasing”.

With `O=C(Nc1ccccc1C(=O)NC1CCCCNC1=O)c1cc2ccccc2s1` (centres unmarked) [ANA12] the “TH+ nerve production and elongation of nerves” value ([6]; 1 μM for 5 days, D15 to D20) was “suppressed TH+ nerve production and elongation of nerves”.

In the case of `c1ccc2c(-c3cnn4cc(-c5ccc(N6CCNCC6)cc5)cnc34)ccnc2c1` [LDN193189], the “neural crest cells and TUBB3/TH+ neurons detected” value ([7]; 250 nM, days 3-6) is reported as “high frequency”, the “induction of neural crest cells and TH/TUBB+ sympathetic neurons” value ([7]; 250 nM, days 3 to 6) is reported as “optimal concentrations” and the “induction of neural crest cells and TH/TUBB+ sympathetic neurons” value ([7]; 500 nM, days 3 to 6) is reported as “optimal concentrations”. The “TH/TUBB+ sympathetic neurons” value ([7]; 1000 nM, days 3 to 6) was “reduced”, the “production of neural crest cells” value ([7]; 1000 nM, days 3 to 6) was “reduced” and the “creation of sympathetic neurons, or sympathetic nerves” value ([7]; LDN 250 (nM)) was “reproducibly”. For the same molecule, the “gene expression level of liver marker HNF4A” value ([8]; 250 nM, 500 nM, 1000 nM) was “decrease in a LDN concentration-dependent manner”, the “gene expression level of liver marker albumin (ALB)” value ([8]; 250 nM, 500 nM, 1000 nM) was “decrease in a LDN concentration-dependent manner” and the “gene expression of liver marker ALB” value ([8]; 250 nM, days 3-6) was “reduced”. The “gene expression of liver marker HNF4A” value ([8]; 250 nM, days 3-6) was “reduced”, the “induction to the liver” value ([8]; timing of addition changed from Day 3-6 to Day 6-10) was “improves induction to the liver” and the detection of neurons ([1]; 250 nM LDN193189 alone or in combination with 10 μM SB431542, days 6-10, rate varies between batches) was “sometimes detected”. The “expression of autonomic marker ASCL1” value ([1]; HLOs on day 20, treated days 3-6, real-time PCR) was “increased”, the “frequency of sympathetic generation” value ([1]; addition Day 6-10) was “varies between batches” and the “expression of neural crest marker FOXD3” value (foregut spheroids) was “increased expression”. The “expression of neural crest marker NGFR” value (foregut spheroids) was “increased expression”, the “expression of neural crest marker SOX10” value (foregut spheroids) was “increased expression” and the ALB secretion lower ([2]; 250 nM LDN193189 alone or in combination with 10 μM SB431542, days 6-10) was “about ⅓”. For the same molecule, the ALB secretion ([2]; 250 nM, days 3-6) was “reduced”, the “albumin secretion compared to existing HLOs” value ([2]; 250 nM, days 3-6) was 30-40 fold lower and the “reduction of albumin secretion compared to conventional HLOs” value ([2]; addition Day 6-10) was “a third”.

With `Cc1c[nH]c(-c2cnc(NCCNc3ccc(C#N)cn3)nc2-c2ccc(Cl)cc2Cl)n1` [CHIR] the “TUBB3+ neurons and SOX10 neural crest cells compared to LDN alone” value ([1]; 3 μM CHIR instead of 2 μM, with 250 nM LDN, days 3-6) was “more and More”.

`CC(C)NCC(O)c1ccc(O)c(O)c1` (centres unmarked) [isoproterenol] was tested, and the “concentration of cAMP” value [3] was “increased”.

For `NC[C@H](O)c1ccc(O)c(O)c1` [noradrenaline], the “concentration of cAMP” value [3] was “increased”.

B1: BDNF: brain derived neurotrophic factor, neuron attractive factor (protein, UniProt P23560 19-247, looked up)
Neurotrophic factor BDNF …: APMKEANIRGQGGLAYPGVRTHGTLESVNGPKAGSRGLTSLADTFEHVIEELLDEDQKVRPNEENNKDADLYTSRVMLSSQVPLEPPLLFLLEEYKNYLDAANMSMRVRRHSDPARRGELSVCDSISEWVTAADKKTAVDMSGGTVTVLEKVPVSKGQLKQYFYETKCNPMGYTKEGCRGIDKRHWNSQCRTTQSYVRALTMDSKKRIGWRFIRIDTSCVCTLTIKRGR
B1 was tested, and the “nerves (TUBB3 immunostaining)” value ([6]; 100 nM for 13 days, D15 to D28) was “nerves tend to increase and elongate”.
